How the values were obtained:
[1] = molecular target: T1, FAAH (Fatty Acid Amide Hydrolase) (Mus musculus, UniProt O08914); assay: fluorescent enzymatic test, hydrolysis of AAMC with FAAH (protocol 2); assay type: biochemical; conditions: mouse brain homogenate, AAMC 10 μM, 40 min at 37° C., read-out: IC50 (concentration that inhibits 50% of the control enzymatic activity of FAAH)
T1 construct: The membrane homogenates are prepared extemporaneously by homogenizing the tissues; from tissue; host or cells: mouse brain (minus the cerebellum), membrane homogenate
T1 sequence (O08914 1-579): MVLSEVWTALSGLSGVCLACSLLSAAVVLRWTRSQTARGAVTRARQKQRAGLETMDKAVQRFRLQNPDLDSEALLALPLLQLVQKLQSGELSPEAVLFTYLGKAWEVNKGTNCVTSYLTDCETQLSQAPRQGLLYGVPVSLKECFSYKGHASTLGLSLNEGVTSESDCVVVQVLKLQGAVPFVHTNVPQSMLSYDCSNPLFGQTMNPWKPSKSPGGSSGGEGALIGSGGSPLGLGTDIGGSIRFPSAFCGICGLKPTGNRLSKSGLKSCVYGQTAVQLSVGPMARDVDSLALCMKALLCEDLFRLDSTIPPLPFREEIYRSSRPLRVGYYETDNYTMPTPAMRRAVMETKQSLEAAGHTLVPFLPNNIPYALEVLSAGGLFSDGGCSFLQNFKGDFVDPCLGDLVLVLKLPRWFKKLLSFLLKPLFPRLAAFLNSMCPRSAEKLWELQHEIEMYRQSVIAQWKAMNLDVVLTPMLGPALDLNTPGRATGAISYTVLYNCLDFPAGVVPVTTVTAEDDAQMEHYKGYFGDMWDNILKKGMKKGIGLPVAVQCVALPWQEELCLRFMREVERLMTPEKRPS
Protocol: (§1) The compounds of the invention underwent pharmacological tests to determine their inhibitory effect on the enzyme FAAH (Fatty Acid Amide Hydrolase).
Thus, mouse brains (minus the cerebellum) are withdrawn and stored at −80° C. The brain homogenates are prepared extemporaneously by homogenizing the tissues using a Precellys® machine in reaction buffer (10 mM Tris-HCl, pH=8, 150 mM NaCl and 1 mM ethylenediamine-tetraacetic acid (EDTA)). The enzymatic reaction is performed in black polystyrene 384-well plates in a final volume of 50 μL. Reaction buffer supplemented with fatty acid-free bovine serum albumin (BSA, 1 mg/ml) is used for the enzymatic reaction, the dilution of the compounds and the dilution of the AAMC. Reaction buffer containing the BSA (25 μl/well), the diluted test compounds at various concentrations (5 μl/well containing 1% DMSO) and the membrane preparation (10 μL/well, i.e. 200 μg of tissue per test) are successively added to the wells. After preincubation for 20 minutes of the compounds with the enzyme at 25° C., the reaction is started by adding 10 μL of substrate per well (AAMC, final concentration of 10 μM). After incubation for 40 minutes at 37° C., the aminomethyl coumarin (AMC) produced is measured by fluorescent counting (Envision plate reader).

[2] = molecular target: T1, FAAH (Fatty Acid Amide Hydrolase); assay: radioenzymatic test, hydrolysis of anandamide [ethanolamine 1-3H] with FAAH (protocol 1); assay type: biochemical; conditions: mouse brain membrane homogenate, anandamide 10 μM, 20 min preincubation at 25° C., read-out: IC50 (concentration that inhibits 50% of the control enzymatic activity of FAAH)
Protocol: as §1
Thus, mouse brains (minus the cerebellum) are removed and stored at −80° C. The membrane homogenates are prepared extemporaneously by homogenizing the tissues using a Precellys® machine in reaction buffer (10 mM Tris-HCl, pH=8, 150 mM NaCl and 1 mM ethylenediaminetetraacetic acid (EDTA)). The enzymatic reaction is performed in 96-well Multiscreen filtration plates in a final volume of 70 μl. Reaction buffer supplemented with fatty acid-free bovine serum albumin (BSA, 1 mg/ml) is used for the enzymatic reaction and the dilution of the compounds and of the anandamide [ethanolamine 1-^3H]. The reaction buffer containing BSA (43 μl/well), the diluted test compounds at various concentrations (7 μl/well containing 1% DMSO) and the membrane preparation (10 μl/well, i.e. 200 μg of tissue per test) are successively added to the wells. After preincubation for 20 minutes of the compounds with the enzyme at 25° C., the reaction is started by adding anandamide [ethanolamine 1-^3H](specific activity of 15-20 Ci/mmol) diluted with cold anandamide (10 μl/well, final concentration of 10 μM, 0.01 μCi per test). After incubation for 20 minutes at 25° C., the enzymatic reaction is stopped by adding a 5M solution of activated carbon prepared in 1.5M NaCl buffer and 0.5M HCl (50 μl/well). The mixture is stirred for 10 minutes then the aqueous phase containing the ethanolamine [1-^3H] is recovered by filtration under vacuum and counted by liquid scintillation.

Row | Structure (SMILES) | IC50 [1] [nM] | melting point [°C] | IC50 [2] [nM]
1 | CNC(=O)c1cc(COC(=O)NC2C3CN(c4ccc5cc(F)ccc5n4)CC32)on1 (centres unmarked) [Compound No. 14, [3-(methylcarbamoyl)isoxazol-5-yl]methyl [3-(6-fluoro-quinolin-2-yl)-3-azabicyclo[3.1.0]hex-6-yl]carbamate] | 12 | 220 to 222 | 
2 | Cn1cc(-c2ccc(N3CC4CC(CNC(=O)OCc5cscn5)CC4C3)nc2)cn1 [compound 4, thiazol-4-ylmethyl ({(3aR,5s,6aS)-2-[5-(1-methyl-1H-pyrazol-4-yl)pyrid-2-yl]octahydrocyclopenta[c]pyrrol-5-yl}methyl)carbamate (exo)] |  |  | 8.5
3 | Cn1ncnc1COC(=O)NC[C@H]1C[C@@H]2CN(c3ccc(-c4ccc(F)cc4)cn3)C[C@@H]2C1 [compound 7, (1-methyl-1H-1,2,4-triazol-5-yl)methyl ({(3aR,5s,6aS)-2-[5-(4-fluorophenyl)pyrid-2-yl]octahydrocyclopenta[c]-pyrrol-5-yl}methyl)carbamate (exo)] |  |  | 170
4 | O=C(NC[C@H]1C[C@@H]2CN(c3cccc(C(F)(F)F)n3)C[C@@H]2C1)OCc1cscn1 [Compound No. 1, thiazol-4-ylmethyl ({(3aR,5s,6aS)-2-[6-(trifluoro-methyl)pyrid-2-yl]octahydrocyclopenta[c]pyrrol-5-yl}methyl)carbamate (exo)] |  |  | 200

Second part, the molecule after the results:

Row | IC50 [1] [nM] | melting point [°C] | IC50 [2] [nM] | Structure (SMILES)
5 |  | 157 to 159 | 2.4 | CNC(=O)c1cc(COC(=O)NCC[C@@H]2C[C@@H]3CN(c4ccc(Br)cn4)C[C@@H]3C2)on1 [Compound No. 10, [3-(methylcarbamoyl)isoxazol-5-yl]methyl {2-[(3aR,5r,6aS)-2-(5-bromopyrid-2-yl)octahydrocyclopenta[c]-pyrrol-5-yl]ethyl}carbamate (endo)]
6 |  | 129 to 131 | 0.98 | O=C(NC[C@H]1C[C@@H]2CN(c3ccc(-c4ccc(F)cc4)cn3)C[C@@H]2C1)OCc1cscn1 [Compound No. 3, thiazol-4-ylmethyl ({(3aR,5s,6aS)-2-[5-(4-fluoro-phenyl)pyrid-2-yl]octahydrocyclopenta[c]pyrrol-5-yl}-methyl)carbamate (exo)]
7 |  | 136 to 138 | 1.1 | Cn1ncnc1COC(=O)NC[C@H]1C[C@@H]2CN(c3cccc(-c4cncc(F)c4)n3)C[C@@H]2C1 [Compound No. 8, (1-methyl-1H-1,2,4-triazol-5-yl)methyl {[(3aR,5s,6aS)-2-(5′-fluoro-2,3′-bipyrid-6-yl)octahydrocyclopenta[c]-pyrrol-5-yl]methyl}carbamate (exo)]
